The text below walks through data of patent EP0480714A2, “HIV protease inhibitors having symmetrical structure” (MERCK & CO. INC., priority 1990, dated 1992).

The target in this assay is HIV protease (Human immunodeficiency virus type 1 group M subtype B, UniProt P04585). As to the kind of experiment: Assay for inhibition of microbial expressed viral protease (peptide substrate cleavage, HPLC readout). The note with it: protease expressed in Eschericia coli; peptide substrate Val-Ser-Gln-Asn-(betanapthyl)Ala-Pro-Ile-Val 0.5 mg/mL; 50 mM Na acetate, pH 5.5, 30°C, 1 hour; read-out: IC₅₀. It counts as biochemical. As for the experimental part:
Assay for Inhibition of Microbial Expressed Viral Protease
Inhibition studies of the reaction of the protease expressed in Eschericia coli with a peptide substrate [Val-Ser-Gln-Asn-(betanapthyl)Ala-Pro-Ile-Val, 0.5 mg/mL at the time the reaction is initiated] were in 50 mM Na acetate, pH 5.5, at 30°C for 1 hour. Various concentrations of inhibitor in 1.0 ul DMAO were added to 25 ul of the peptide solution in water. The reaction is initiated by the addition of 15 ul of 0.33 nM protease (0.11 ng) in a solution of 0.133 M Na acetate pH 5.5 and 0.26% bovine serum albumin. The reaction was quenched with 160 ul of 5% phosphoric acid. Products of the reaction were separated by HPLC (VYDAC wide pore 5 cm C-18 reverse phase, acetonitrile gradient, 0.1% phosphoric acid). The extent of inhibition of the reaction was determined from the peak heights of the products.

SMILES strings stand for the structures.

In the case of `O=C(N[C@H]1c2ccccc2C[C@H]1O)[C@H](Cc1ccccc1)CC(O)C[C@@H](Cc1ccccc1)C(=O)N[C@H]1c2ccccc2C[C@H]1O` [Example 1, N,N-bis-(2(R)-hydroxy-1(S)-indanyl)-2, 6(R,R)diphenylmethyl-4-hydroxy-1,7-heptanediamide], the IC50 was approximately 0.7 nM.
